In patent US12655116B2, “Substituted isophthalic acid diamides” (Bayer Aktiengesellschaft, priority 2020, dated 2026):

Columns and labels:
SETVI [1] = assay: Pre-emergence herbicidal action against SETVI; type: in vivo, Setaria viridis; settings: dosage 80 g/ha; for pest or weed control at 80 g/ha: Setaria viridis, 504 h
In short: (§1)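 Visual rating at 3 weeks vs untreated pots; 0–100% scale, 100% = plants died. Treatment: aqueous WP/EC spray onto covering soil, 600–800 l/ha, 0.2% wetter, seeds in sandy loam.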

VERPE [2] = assay: Post-emergence herbicidal action against VERPE; type: in vivo, Veronica persica; settings: for pest or weed control at 5 g/ha / pest or weed control at 20 g/ha: Veronica persica, 504 h
In short: (§2)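 Weeds in sandy loam soil received a post-emergence spray at the one-leaf stage. Compounds were applied as WP or EC in water, 600 to 800 l/ha, with 0.2% wetting agent. Activity in % was judged visually after roughly 3 weeks against untreated plants.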

AMARE [3] = assay: Post-emergence herbicidal action against AMARE; type: in vivo, Amaranthus retroflexus; settings: 20 g/ha, visual assessment about 3 weeks after treatment, 100% = plants have died, 0% = like control plants
In short: as §2

ECHCG [4] = assay: Pre-emergence herbicidal action against ECHCG; type: in vivo, Echinochloa crus-galli; settings: for pest or weed control at 80 g/ha: Echinochloa crus-galli, 504 h
In short: as §1

POLCO = assay: Post-emergence herbicidal action against POLCO; type: in vivo, Polygonum convolvulus; settings: for Post-emergence action against POLCO in % / pest or weed control at 20 g/ha: dosage 20 g/ha
Experimental: Seeds of monocotyledonous and dicotyledonous weed and crop plants are laid out in sandy loam soil in wood-fiber pots, covered with soil and cultivated in a greenhouse under good growth conditions. 2 to 3 weeks after sowing, the test plants are treated at the one-leaf stage. The compounds of the invention, formulated in the form of wettable powders (WP) or as emulsion concentrates (EC), are then sprayed onto the green parts of the plants in the form of an aqueous suspension or emulsion at a water application rate equivalent to 600 to 800 l/ha, with addition of 0.2% wetting agent. After the test plants have been left to stand in the greenhouse under optimal growth conditions for about 3 weeks, the action of the preparations is assessed visually in comparison to untreated controls (herbicidal action in percent (%): 100% activity=the plants have died, 0% activity=like control plants). […] The tables below illustrate, in an illustrative manner, the post-emergence herbicidal action of the compounds of the invention, the herbicidal activity being stated in percent.

ECHCG [5] = assay: Post-emergence herbicidal action against ECHCG; type: in vivo, Echinochloa crus-galli
In short: as §2

AMARE [6] = assay: Pre-emergence herbicidal action against AMARE; type: in vivo, Amaranthus retroflexus; settings: for pest or weed control at 20 g/ha / pest or weed control at 80 g/ha: Amaranthus retroflexus, 504 h
In short: as §1

VIOTR [7] = assay: Pre-emergence herbicidal action against VIOTR; type: in vivo, Viola tricolor
In short: as §1

VIOTR [8] = assay: Post-emergence herbicidal action against VIOTR; type: in vivo, Viola tricolor
In short: as §2

MATIN [9] = assay: Pre-emergence herbicidal action against MATIN; type: in vivo, Matricaria inodora; settings: for pest or weed control at 20 g/ha / pest or weed control at 80 g/ha: Tripleurospermum inodorum, 504 h
In short: as §1

SETVI [10] = assay: Post-emergence herbicidal action against SETVI; type: in vivo, Setaria viridis
In short: as §2

PHBPU [11] = assay: Pre-emergence herbicidal action against PHBPU; type: in vivo, Pharbitis purpurea; settings: dosage 80 g/ha
In short: as §1

DIGSA [12] = assay: Pre-emergence herbicidal action against DIGSA; type: in vivo, Digitaria sanguinalis; settings: for pest or weed control at 20 g/ha / pest or weed control at 80 g/ha: Digitaria sanguinalis, 504 h
In short: as §1

VERPE [13] = assay: Pre-emergence herbicidal action against VERPE; type: in vivo, Veronica persica
In short: as §1

MATIN [14] = assay: Post-emergence herbicidal action against MATIN; type: in vivo, Matricaria inodora; settings: for pest or weed control at 20 g/ha: Tripleurospermum inodorum, 504 h
In short: as §2

ABUTH [15] = assay: Post-emergence herbicidal action against ABUTH; type: in vivo, Abutilon theophrasti; settings: visual assessment about 3 weeks after treatment vs untreated controls; for pest or weed control at 5 g/ha / pest or weed control at 20 g/ha: Abutilon theophrasti, 504 h
In short: as §2

DIGSA [16] = assay: Post-emergence herbicidal action against DIGSA; type: in vivo, Digitaria sanguinalis; settings: for Post-emergence action against DIGSA: 20 g/ha
In short: as §2

PHBPU [17] = assay: Post-emergence herbicidal action against PHBPU; type: in vivo, Pharbitis purpurea; settings: dosage 20 g/ha
In short: as §2

ABUTH [18] = assay: Pre-emergence herbicidal action against ABUTH; type: in vivo, Abutilon theophrasti; settings: for pest or weed control at 80 g/ha / pest or weed control at 20 g/ha: Abutilon theophrasti, 504 h; for pest or weed control at 20 g/ha: read-out: Pre-emergence action against ABUTH (herbicidal activity in percent)
In short: as §1

AVEFA = assay: Pre-emergence herbicidal action against AVEFA; type: in vivo, Avena fatua; settings: 80 g/ha, pre-emergence
In short: as §1

ALOMY [19] = assay: Pre-emergence herbicidal action against ALOMY; type: in vivo, Alopecurus myosuroides; settings: 80 g/ha, pre-emergence, scored visually after 3 weeks vs untreated controls (100% = plants have died, 0% = like control plants)
In short: as §1

ALOMY [20] = assay: Post-emergence herbicidal action against ALOMY; type: in vivo, Alopecurus myosuroides; settings: dosage 20 g/ha, visual assessment about 3 weeks after treatment vs untreated controls
In short: as §2

[21] = 20 g/ha, scored visually after 3 weeks vs untreated controls, 100% = plants have died, 0% = like control plants
[22] = 80 g/ha, scored visually after 3 weeks vs untreated controls (100% = plants have died, 0% = like control plants)
[23] = dosage 20 g/ha, scored visually after 3 weeks vs untreated controls, 100% = plants have died, 0% = like control plants
[24] = Echinochloa crus-galli, 504 h, dosage 20 g/ha
[25] = 80 g/ha, scored visually after 3 weeks vs untreated controls, 100% = plants have died, 0% = like control plants
[26] = Viola tricolor, 504 h, dosage 80 g/ha

CCNC(=O)c1c(C(F)F)ccc(C(=O)Nc2nnnn2CC)c1C1CC1 [Example 2-305]
100%: Post-emergence action at 20 g/ha against AMARE in % (AMARE [3]) | Pre-emergence action against ECHCG in % (ECHCG [4]; 80 g/ha) | Post-emergence action against POLCO in % (POLCO) | Pre-emergence action against AMARE in % (AMARE [6]; [21]) | Pre-emergence action against AMARE in % (AMARE [6]; [22]) | Pre-emergence action against VIOTR in % (VIOTR [7]; dosage 80 g/ha) | Pre-emergence action against MATIN in % (MATIN [9]; dosage 20 g/ha) | Pre-emergence action against MATIN in % (MATIN [9]; dosage 80 g/ha) | Pre-emergence action against DIGSA in % (DIGSA [12]; dosage 20 g/ha) | Pre-emergence action against DIGSA in % (DIGSA [12]; dosage 80 g/ha) | Pre-emergence action against VERPE in % (VERPE [13]; dosage 80 g/ha) | Pre-emergence action against ABUTH (herbicidal activity) (ABUTH [18]; [22]) | Pre-emergence action against ABUTH (herbicidal activity in percent) (ABUTH [18]; [23])
80%: Pre-emergence action against SETVI in % (SETVI [1]) | Pre-emergence action against ECHCG in % (ECHCG [4]; 20 g/ha) | Post-emergence action against VIOTR in % (VIOTR [8]; 5 g/ha) | Post-emergence action against MATIN in % (MATIN [14]; dosage 5 g/ha) | Post-emergence action against ABUTH in % (ABUTH [15]; dosage 5 g/ha) | Post-emergence action against DIGSA in % (DIGSA [16]; 5 g/ha)
90%: Post-emergence action against VERPE in % (VERPE [2]; 20 g/ha) | Post-emergence action against ECHCG in % (ECHCG [5]; dosage 5 g/ha) | Post-emergence action against ECHCG in % (ECHCG [5]; dosage 20 g/ha) | Pre-emergence action against VIOTR in % (VIOTR [7]; dosage 20 g/ha) | Post-emergence action against VIOTR in % (VIOTR [8]; 20 g/ha) | Post-emergence action against SETVI in % (SETVI [10]; dosage 5 g/ha) | Post-emergence action against SETVI in % (SETVI [10]; dosage 20 g/ha) | Pre-emergence action against PHBPU in % (PHBPU [11]) | Post-emergence action against MATIN in % (MATIN [14]; dosage 20 g/ha) | Post-emergence action against ABUTH in % (ABUTH [15]; dosage 20 g/ha) | Post-emergence action against DIGSA (DIGSA [16]) | Post-emergence action against PHBPU in % (PHBPU [17])

CNC(=O)c1c(C(F)F)ccc(C(=O)Nc2nnnn2C)c1OC [Example 1-72]
100%: pest or weed control at 80 g/ha (SETVI [1]) | pest or weed control at 5 g/ha (POLCO; Fallopia convolvulus, 504 h, dosage 5 g/ha) | pest or weed control at 20 g/ha (POLCO; Fallopia convolvulus, 504 h) | pest or weed control at 20 g/ha (AMARE [6]; [21]) | pest or weed control at 80 g/ha (AMARE [6]; [25]) | pest or weed control at 80 g/ha (VIOTR [7]; [26]) | pest or weed control at 80 g/ha (MATIN [9]; dosage 80 g/ha) | pest or weed control at 80 g/ha (DIGSA [12]; dosage 80 g/ha) | pest or weed control at 80 g/ha (ABUTH [18]; [22]) | pest or weed control at 20 g/ha (ABUTH [18]; [23])
90%: pest or weed control at 20 g/ha (VERPE [2]; 20 g/ha) | pest or weed control at 20 g/ha (VIOTR [8]; Viola tricolor, 504 h, 20 g/ha) | pest or weed control at 20 g/ha (DIGSA [12]; dosage 20 g/ha) | pest or weed control at 20 g/ha (ABUTH [15]; dosage 20 g/ha)
80%: pest or weed control at 5 g/ha (VERPE [2]) | pest or weed control at 80 g/ha (ECHCG [4]; 80 g/ha) | pest or weed control at 20 g/ha (ECHCG [5]; [24]) | pest or weed control at 20 g/ha (MATIN [9]; dosage 20 g/ha) | pest or weed control at 20 g/ha (SETVI [10]; Setaria viridis, 504 h, dosage 20 g/ha) | pest or weed control at 20 g/ha (MATIN [14]; dosage 20 g/ha) | pest or weed control at 5 g/ha (ABUTH [15]; dosage 5 g/ha) | pest or weed control at 20 g/ha (PHBPU [17]; Ipomoea purpurea, 504 h)

CCNC(=O)c1c(Br)ccc(C(=O)Nc2nnc(C)o2)c1Cl [Example 6-141]
90%: Pre-emergence action against ECHCG in % (ECHCG [4]; 80 g/ha) | Pre-emergence action against DIGSA in % (DIGSA [12]; dosage 20 g/ha) | Pre-emergence action against ALOMY (herbicidal activity) (ALOMY [19]) | Post-emergence action against ALOMY in % (ALOMY [20])
100%: Post-emergence action at 20 g/ha against AMARE in % (AMARE [3]) | Pre-emergence action against AMARE in % (AMARE [6]; [22]) | Pre-emergence action against DIGSA in % (DIGSA [12]; dosage 80 g/ha)
80%: Post-emergence action against POLCO in % (POLCO) | Post-emergence action against ECHCG in % (ECHCG [5]; dosage 20 g/ha) | Post-emergence action against VIOTR in % (VIOTR [8]; 20 g/ha) | Pre-emergence action against MATIN in % (MATIN [9]; dosage 80 g/ha) | Pre-emergence action against AVEFA in % (AVEFA) | Post-emergence action against ABUTH in % (ABUTH [15]; dosage 20 g/ha) | Post-emergence action against DIGSA (DIGSA [16])

CCNC(=O)c1c(C(F)F)ccc(C(=O)Nc2nnnn2C)c1OC [Example 1-73]
100%: pest or weed control at 80 g/ha (SETVI [1]) | pest or weed control at 80 g/ha (ECHCG [4]; 80 g/ha) | pest or weed control at 20 g/ha (AMARE [6]; [21]) | pest or weed control at 80 g/ha (AMARE [6]; [25]) | pest or weed control at 20 g/ha (VIOTR [7]; Viola tricolor, 504 h, dosage 20 g/ha) | pest or weed control at 80 g/ha (VIOTR [7]; [26]) | pest or weed control at 80 g/ha (MATIN [9]; dosage 80 g/ha) | pest or weed control at 80 g/ha (DIGSA [12]; dosage 80 g/ha) | pest or weed control at 80 g/ha (VERPE [13]; Veronica persica, 504 h, dosage 80 g/ha) | pest or weed control at 80 g/ha (ABUTH [18]; [22]) | pest or weed control at 20 g/ha (ABUTH [18]; [23])
80%: pest or weed control at 5 g/ha (VERPE [2]) | pest or weed control at 20 g/ha (VERPE [2]; 20 g/ha) | pest or weed control at 20 g/ha (POLCO; Fallopia convolvulus, 504 h) | pest or weed control at 5 g/ha (ECHCG [5]; Echinochloa crus-galli, 504 h, dosage 5 g/ha) | pest or weed control at 20 g/ha (ECHCG [5]; [24]) | pest or weed control at 5 g/ha (VIOTR [8]; Viola tricolor, 504 h, 5 g/ha) | pest or weed control at 20 g/ha (VIOTR [8]; Viola tricolor, 504 h, 20 g/ha) | pest or weed control at 20 g/ha (VERPE [13]; Veronica persica, 504 h, dosage 20 g/ha) | pest or weed control at 20 g/ha (MATIN [14]; dosage 20 g/ha) | pest or weed control at 80 g/ha (ALOMY [19]; Alopecurus myosuroides, 504 h) | pest or weed control at 5 g/ha (ABUTH [15]; dosage 5 g/ha) | pest or weed control at 20 g/ha (ABUTH [15]; dosage 20 g/ha)
90%: pest or weed control at 20 g/ha (MATIN [9]; dosage 20 g/ha) | pest or weed control at 20 g/ha (DIGSA [12]; dosage 20 g/ha)
